According to patent US12324813B2, “Method and pharmaceutical composition for rescuing retinal degeneration” (Taipei Veterans General Hospital, priority 2023, dated 2025):
“Also recorded” adds a separate entry of the source.

Legend:
[1] = tested on: ARPE-19 cells; assay: Immunoblotting analysis of treated ARPE-19 cells; format: cell-based
Experimental: Cells were treated with the autophagy inhibitor Bafilomycin A1 (Sigma, Saint Louis, MO, USA) at 75 nM or DUSP6 inhibitor BCI (Sigma, Saint Louis, MO, USA) at 1.25 μM or 2.5 μM for 6 h at 37° C. Proteins were collected after treatment for further study. C57BL/6N mice were sacrificed and their eyes were collected. The excess muscle tissue outside the sclera was removed and then a needle was used to make a hole in the cornea then remove the whole cornea. Next, we eliminated the lens and retina, and finally lysed the remaining tissue RIPA buffer (10× Merck Millipore, Temecula, CA, USA) containing with 1% protease inhibitor. Meanwhile, in vitro ARPE-19 cells were collected and lysed with RIPA buffer containing with 1% protease inhibitor. Subsequently, cell lysates were centrifuged for 10 min at 4° C. and the supernatants were collected. Next, the protein concentrations were measured via the BCA Protein Quantification Kit. An equal weight of total protein was separated by electrophoresis on SDS/PAGE. After the proteins were transferred onto polyvinylidene difluoride (PVDF) membranes (Millipore, Bedford, MA, USA), the membranes were incubated with blocking buffer (1×TBST and 5% skim milk) for 1 h at room temperature. After the blocking step, the membranes were incubated with the following primary antibodies at 4° C. overnight: DUSP6 (Abcam, Cambridge, UK), Phospho-ERK1/2 (Cell Signaling, Danvers, MA, USA), ERK1/2 (Cell Signaling, Danvers, MA, USA), LC3B (Novus, Centennial, CO, USA), SQSTM1/p62 (Abcam, Cambridge, UK), LAMP2 (Abcam, Cambridge, UK), Beclin-1 (Cell Signaling, Danvers, MA, USA), and Bactin (Sigma, Saint Louis, MO, USA). Next, membranes were washed three times with TBST and incubated with HRP-conjugated secondary antibodies including Goat anti-mouse IgG (Invitrogen, Carlsbad, CA, USA) and Goat anti-rabbit IgG (Invitrogen, Carlsbad, CA, USA) for 1 h at RT. The antigen-antibody complexes were detected by an enhanced chemiluminescence (ECL) substrate kit (Bioman, Millipore, Bedford, MA, USA). Bands were analyzed and quantified by the ImageJ (NIH, Bethesda, MD, USA) analysis software.

[2] = tested on: ARPE-19 cells; assay: qRT-PCR of p62 mRNA in ARPE-19 cells; format: cell-based; conditions: ARPE-19 co-treated with BCI and NaIO3 for 6 hours
Experimental: The cDNA was diluted to 200 ng/μL with sterile water and mixed with SYBR PCR Master Mix and primers. Amplification reaction was performed in a thermal cycler according to the manufacturer's instructions. mRNA abundance was quantified using the threshold cycle method. The mRNA expression of GAPDH was used as an internal control for normalization.

[3] = tested on: C57BL/6N mice; assay: DUSP6 inhibitor (BCI) treatment in NaIO3-treated mice; format: in vivo
From the text: Retina samples were fixed with 4% paraformaldehyde (Sigma, Saint Louis, MO, USA) overnight, followed by 1×PBS. The methodology used for fixation, dehydration, clearing, infiltration, and embedding was developed according to that of Bio-Check Laboratories. […] The morphology of the retina was observed using a light microscope (Olympus America, Melville, NY, USA). Next, the thicknesses of the retina, defined as the distance between the inner limiting membrane, Bruch's membrane, and the outer nuclear layer (ONL), were measured by Image J (NIH, Bethesda, Maryland, USA). In vitro, the cells were seeded in 24-well plates at a density of 2×10^5 per well and incubated at 37° C. with 5% CO2 for 24 h. […] After rinsing three times with PBS, the cells were permeabilized and blocked with a blocking solution (0.3% BSA and 0.1% Triton X-100 in PBS) at room temperature for 1 h. After blocking, cells were incubated with primary antibodies overnight at 4° C. The primary antibodies include DUSP6 (Abcam, Cambridge, UK), Phospho-ERK1/2 (Cell Signaling, Danvers, MA, USA), LC3B (Novus, Centennial, CO, USA), and SQSTM1/p62 (Abcam, Cambridge, UK). After incubation, cells were washed three times with PBST (0.1% Triton X-100 in PBS). Secondary antibodies (1:700) were applied for 3 h at room temperature. The secondary antibodies include IgG Alexa 488 goat anti-rabbit IgG and Alexa 594 goat anti-mouse IgG. Nuclei were stained with DAPI (1:1000) for 10 min at 4° C. and slides were observed by a light microscope (Olympus America, Melville, NY, USA). In vivo, the sample slices were pretreated with bleaching solution (1% NaH2PO4 and 2.5% H2O2) overnight at room temperature. Next, the primary antibodies, including DUSP6, Phospho-ERK1/2, LC3B, SQSTM1/p62, and RPE65, were incubated with the sample slices overnight at 4° C. After incubation, the samples were washed three times with PBST. Tests with secondary antibodies (1:700) were conducted for 1 h at room temperature. The secondary antibodies included IgG Alexa 488 goat anti-rabbit IgG and Alexa 594 goat anti-mouse IgG. After treating them with mounting solution, the slides were observed by a fluorescence microscope (Olympus America, Melville, NY, USA). […] The structure of the retina was analyzed by real-time images and H & E staining. Proteins were collected from retina for further study.

[4] = tested on: ARPE-19 cells; assay: Live imaging of GFP-LC3-RFP-LC3AG reporter in ARPE-19 cells; format: cell-based; conditions: ARPE-19, BCI under NaIO3-induced oxidative stress
From the text: Furthermore, to estimate the autophagic flux in BCI-treated ARPE-19 cells, we introduced the GFP-LC3-RFP-LC3AG gene into ARPE-19 cells and monitored live images taken after BCI treatment.

[5] = tested on: ARPE-19 cells; assay: Immunocytochemistry / immunofluorescence staining of ARPE-19 cells; format: cell-based
Experimental: In vitro, the cells were seeded in 24-well plates at a density of 2×10^5 per well and incubated at 37° C. with 5% CO2 for 24 h. […] After rinsing three times with PBS, the cells were permeabilized and blocked with a blocking solution (0.3% BSA and 0.1% Triton X-100 in PBS) at room temperature for 1 h. After blocking, cells were incubated with primary antibodies overnight at 4° C. The primary antibodies include DUSP6 (Abcam, Cambridge, UK), Phospho-ERK1/2 (Cell Signaling, Danvers, MA, USA), LC3B (Novus, Centennial, CO, USA), and SQSTM1/p62 (Abcam, Cambridge, UK). After incubation, cells were washed three times with PBST (0.1% Triton X-100 in PBS). Secondary antibodies (1:700) were applied for 3 h at room temperature. The secondary antibodies include IgG Alexa 488 goat anti-rabbit IgG and Alexa 594 goat anti-mouse IgG. Nuclei were stained with DAPI (1:1000) for 10 min at 4° C. and slides were observed by a light microscope (Olympus America, Melville, NY, USA). In vivo, the sample slices were pretreated with bleaching solution (1% NaH2PO4 and 2.5% H2O2) overnight at room temperature. Next, the primary antibodies, including DUSP6, Phospho-ERK1/2, LC3B, SQSTM1/p62, and RPE65, were incubated with the sample slices overnight at 4° C. After incubation, the samples were washed three times with PBST. Tests with secondary antibodies (1:700) were conducted for 1 h at room temperature. The secondary antibodies included IgG Alexa 488 goat anti-rabbit IgG and Alexa 594 goat anti-mouse IgG. After treating them with mounting solution, the slides were observed by a fluorescence microscope (Olympus America, Melville, NY, USA).

[6] = NaIO3-treated ARPE-19 cells with Baf-A1 75 nM
[7] = NaIO3 30 mg/kg i.p. then BCI 0.5 mg/kg intravitreal

| Structure (SMILES) | LC3B-II expression [1, 6] | p62 expression levels [1, 6] | p62 mRNA level [2] | p-ERK/ERK ratio (ERK activity) ([1]; NaIO3-treated ARPE-19, BCI 1.25 and 2.5 μM, 6 h) | autophagic markers (immunoblotting) ([1]; NaIO3-treated ARPE-19, BCI 1.25 and 2.5 μM, hydrochloride) | ONL disorganization (H & E) ([3]; BCI 0.5 mg/kg intravitreal in presence of NaIO3-induced oxidative stress) | ONL thickness ([3]; BCI group vs NaIO3 group) | melanin deposition on the retina ([3]; BCI group vs mice treated with NaIO3 only) | co-localization of LC3B and p62 between the ONL and RPE layers [3, 7] | phosphorylated ERK speckles around the ONL and RPE layers [3, 7] | accumulation of p62 in mouse retinas ([3]; mouse retinas treated with BCI) | GFP / RFP LC3 signal (late-stage autophagy) [4] | autophagosomes (fluorescence images) ([5]; ARPE-19, BCI 1.25 μM, oxidative conditions) | speckles of p-ERK ([5]; ARPE-19, BCI with or without NaIO3) | perinuclear p62 punctate ([5]; ARPE-19 co-treated with NaIO3 and BCI) | cell-cell junction (tight junction marker ZO-1) ([5]; RPE cells, NaIO3 vs control, BCI co-treatment) |
| --- | --- | --- | --- | --- | --- | --- | --- | --- | --- | --- | --- | --- | --- | --- | --- | --- |
| CO/C1=C\C(C)=C\[C@@H](C)[C@@H](O)[C@@H](C)C/C(C)=C/C=C/[C@H](OC)[C@@H]([C@@H](C)[C@@H](O)[C@H](C)[C@@]2(O)C[C@@H](O)[C@H](C)[C@@H](C(C)C)O2)OC1=O [Baf-A1, Bafilomycin A1] | increase in LC3B-II expression in a dose-dependent manner | remained unchanged |  |  |  |  |  |  |  |  |  |  |  |  |  |  |
| Cl.O=C1/C(=C/c2ccccc2)C(NC2CCCCC2)c2ccccc21 (mixture of isomers) [BCI, (E/Z)-BCI hydrochloride] |  |  | upregulated | significantly increased in NaIO3-treated cells after BCI treatment in a dose-dependent manner | upregulation of autophagic markers upon BCI treatment in a dose-dependent manner; also recorded: also upregulated | alleviated | restored the ONL thickness | significantly reduced | excessive co-localization | dramatically enhanced | significantly decreased | GFP-positive signal being shifted to an RFP-positive signal | aggregation of autophagosomes | increased after BCI treatment, despite the presence or absence of NaIO3 | significantly upregulated | rescue the cell-cell junction |
